Reference: patent publication US20260364215A1, “Radiopharmaceutical Compositions Targeting Ephrin Type-A Receptor 2 and Uses Thereof” (PeptiDream Inc., priority 2022, published 2026)
pKd: −log10 of the molar value. Where two headings read alike, the source gives them in different places. Numbered stars: 1 amine (or outer) side, 2 acyl side, 3 side chain; on linkers, the order of the positions; unused ones are H or OH. Bridge positions count the residues as written; N and C are the ends. Square brackets hold non-standard residues; d marks the D form. Side chains are listed from the residue outwards. Peptide text beside a SMILES is read from it. * marks the point of attachment. DOTA(Lu) = O=C1CN2CCN3CCN(CC(=O)*)CCN(CC2)CC(=O)[O][Lu]([O]1)[O]C(=O)C3; NH(1-deoxy-D-glucityl) = OC[C@@H](O)[C@@H](O)[C@H](O)[C@@H](O)CN*; DOTA = O=C(O)CN1CCN(CC(=O)O)CCN(CC(=O)*)CCN(CC(=O)O)CC1; Trp(1-Me,7-Cl) = Cn1cc(C[C@H](N)C(=O)O)c2cccc(Cl)c21; dPhe(3-CONH2) = NC(=O)c1cccc(C[C@@H](N)C(=O)O)c1; NMePhe(3-CN) = CN[C@@H](Cc1cccc(C#N)c1)C(=O)O; Piperazinyl(4-CH2COOH) = O=C(O)CN1CCN(*)CC1; Trp(1-Me) = Cn1cc(C[C@H](N)C(=O)O)c2ccccc21; NMemTyr = CN[C@@H](Cc1cccc(O)c1)C(=O)O; NMe3Pal = CN[C@@H](Cc1cccnc1)C(=O)O; Gly(cBu) = N[C@H](C(=O)O)C1CCC1; NMeE = CN[C@@H](CCC(=O)O)C(=O)O; Aad = N[C@@H](CCCC(=O)O)C(=O)O; NMeN = CN[C@@H](CC(N)=O)C(=O)O; CO = O=C([*:1])[*:2]

Target: T1, Recombinant Human EphA2 Fc Protein (Homo sapiens, UniProt P29317)
T1 construct: purchased Elabscience
Experiment: Interaction analysis (kinetics, KD) of peptides and conjugates against EphA2 by SPR, Biacore T200, single-cycle kinetics (Examples B15 and B22)
Assay type: binding
Experimental: Example B15. Interaction Analysis by SPR was Performed Using Biacore (Cytiva)
SPR assay was performed using Biacore T200 (Cytiva).
The HBS-P+ buffer (10 mM HEPES (pH7.4), 150 mM NaCl, 0.05% (v/v) Surfactant P20) containing 1% DMSO was used as running buffer. Recombinant Human EphA2 Fc Protein (Fc tag, Elabscience) was captured by Human Antibody Capture kit (Cytiva). Peptide samples in DMSO were diluted with running buffer, and prepared five serial dilutions. Using these serial dilutions, kinetics of peptides against EphA2 was measured at a flow rate of […] at 25 °C. The method adopted for sample measurement was a single-cycle kinetics method. The analysis was conducted using the evaluation software 3.0 provided with Biacore T200. Kinetics fitting was done on the difference data obtained by subtracting the baseline data from sample measurement data. KD values were calculated based on the association rate constant (ka) and dissociation rate constant (kd).
Example B22: Interaction Analysis of Conjugates by SPR was Performed Using Biacore (Cytiva)
SPR assay was performed using Biacore T200 (Cytiva) according to Example B15.

[1] = peptides, Biacore T200, 25 °C, Table B12, read-out: SPR Kd
[2] = conjugates, Biacore T200 according to Example B15, Table B16, read-out: SPR Kd

T1 sequence (P29317 24-534 limits assumed): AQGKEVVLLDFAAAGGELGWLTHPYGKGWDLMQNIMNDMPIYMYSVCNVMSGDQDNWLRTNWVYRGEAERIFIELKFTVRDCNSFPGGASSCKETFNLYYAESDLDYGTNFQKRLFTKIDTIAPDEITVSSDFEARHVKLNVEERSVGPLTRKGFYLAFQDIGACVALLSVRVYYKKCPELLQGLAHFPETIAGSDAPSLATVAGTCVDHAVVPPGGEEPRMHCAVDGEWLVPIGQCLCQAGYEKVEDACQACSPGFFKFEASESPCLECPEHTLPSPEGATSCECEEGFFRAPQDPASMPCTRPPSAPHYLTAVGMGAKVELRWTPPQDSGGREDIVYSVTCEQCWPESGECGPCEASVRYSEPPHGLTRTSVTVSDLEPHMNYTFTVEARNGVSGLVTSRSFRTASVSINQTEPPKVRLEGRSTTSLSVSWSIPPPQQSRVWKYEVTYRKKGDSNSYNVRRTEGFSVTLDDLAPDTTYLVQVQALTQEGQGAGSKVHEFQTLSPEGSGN

| Structure (SMILES) | pKd | further results |
| --- | --- | --- |
| C[C@@H](O)[C@@H]1NC(=O)[C@H](Cc2cn(C)c3ccccc23)NC(=O)[C@H](CCC(=O)NC[C@H](O)[C@@H](O)[C@H](O)[C@H](O)CO)NC(=O)[C@H](Cc2cn(C)c3c(Cl)cccc23)NC(=O)[C@H](Cc2cccnc2)N(C)C(=O)[C@H](CCCC(N)=O)NC(=O)[C@H](C2CCC2)NC(=O)[C@H](CC(N)=O)NC(=O)[C@H](Cc2cccnc2)N(C)C(=O)[C@@H](Cc2cccc(C(N)=O)c2)NC(=O)CSC[C@@H](C(N)=O)NC(=O)[C@H](CCCC(N)=O)NC1=O [PDC_EphA2-00019437] ({CH2CO}-[dPhe(3-CONH2)][NMe3Pal]N[Gly(cBu)][Aad](NH2)[NMe3Pal][Trp(1-Me,7-Cl)]E(NH(1-deoxy-D-glucityl))[Trp(1-Me)]T[Aad](NH2)C-NH2; thioether N-12) |  | pKd [1]: > 9.00 |
| C[C@@H](O)[C@@H]1NC(=O)[C@H](Cc2cn(C)c3ccccc23)NC(=O)[C@H](CCCCNC(=O)N2CCN(CC(=O)O)CC2)NC(=O)[C@H](Cc2cn(C)c3c(Cl)cccc23)NC(=O)[C@H](Cc2cccnc2)N(C)C(=O)[C@H](CCCC(N)=O)NC(=O)[C@H](C2CCC2)NC(=O)[C@H](CC(N)=O)NC(=O)[C@H](Cc2cccnc2)N(C)C(=O)[C@@H](Cc2cccc(C(N)=O)c2)NC(=O)CSC[C@@H](C(N)=O)NC(=O)[C@H](CCCC(N)=O)NC1=O [PDC_EphA2-00019438] ({CH2CO}-[dPhe(3-CONH2)][NMe3Pal]N[Gly(cBu)][Aad](NH2)[NMe3Pal][Trp(1-Me,7-Cl)]K([CO-Piperazinyl(4-CH2COOH)])[Trp(1-Me)]T[Aad](NH2)C-NH2; thioether N-12) |  | pKd [1]: > 9.00 |
| C[C@@H](O)[C@@H]1NC(=O)[C@H](Cc2cn(C)c3ccccc23)NC(=O)[C@H](CCC(=O)NC[C@H](O)[C@@H](O)[C@H](O)[C@H](O)CO)NC(=O)[C@H](Cc2cn(C)c3c(Cl)cccc23)NC(=O)[C@H](CC(N)=O)N(C)C(=O)[C@H](CCCC(N)=O)NC(=O)[C@H](C2CCC2)NC(=O)[C@H](CC(N)=O)NC(=O)[C@H](Cc2cccnc2)N(C)C(=O)[C@@H](Cc2cccc(C(N)=O)c2)NC(=O)CSC[C@@H](C(=O)N[C@H](CCCCNC(=O)CN2CCN3CCN4CCN(CC2)CC(=O)[O][Lu]([O]C(=O)C3)[O]C(=O)C4)C(N)=O)NC(=O)[C@H](CCCC(N)=O)NC1=O [PDC_EphA2-00022593-C302] ({CH2CO}-[dPhe(3-CONH2)][NMe3Pal]N[Gly(cBu)][Aad](NH2)[NMeN][Trp(1-Me,7-Cl)]E(NH(1-deoxy-D-glucityl))[Trp(1-Me)]T[Aad](NH2)C[dK](DOTA(Lu))-NH2; thioether N-12) | > 9.00 |  |
| C[C@@H](O)[C@@H]1NC(=O)[C@H](Cc2cn(C)c3ccccc23)NC(=O)[C@H](CCC(=O)NC[C@H](O)[C@@H](O)[C@H](O)[C@H](O)CO)NC(=O)[C@H](Cc2cn(C)c3c(Cl)cccc23)NC(=O)[C@H](CC(N)=O)N(C)C(=O)[C@H](CCC(=O)NC[C@H](O)[C@@H](O)[C@H](O)[C@H](O)CO)NC(=O)[C@H](C2CCC2)NC(=O)[C@H](CC(N)=O)NC(=O)[C@H](Cc2cccnc2)N(C)C(=O)[C@@H](Cc2cccc(C(N)=O)c2)NC(=O)CSC[C@@H](C(=O)N[C@H](CCCCNC(=O)CN2CCN3CCN4CCN(CC2)CC(=O)[O][Lu]([O]C(=O)C3)[O]C(=O)C4)C(N)=O)NC(=O)[C@H](CCCC(N)=O)NC1=O [PDC_EphA2-00022594-C302] ({CH2CO}-[dPhe(3-CONH2)][NMe3Pal]N[Gly(cBu)]E(NH(1-deoxy-D-glucityl))[NMeN][Trp(1-Me,7-Cl)]E(NH(1-deoxy-D-glucityl))[Trp(1-Me)]T[Aad](NH2)C[dK](DOTA(Lu))-NH2; thioether N-12) | > 9.00 |  |
| C[C@@H](O)[C@@H]1NC(=O)[C@H](Cc2cn(C)c3ccccc23)NC(=O)[C@H](CCC(=O)NC[C@H](O)[C@@H](O)[C@H](O)[C@H](O)CO)NC(=O)[C@H](Cc2cn(C)c3ccccc23)NC(=O)[C@H](CC(N)=O)N(C)C(=O)[C@H](CCCC(N)=O)NC(=O)[C@H](C2CCC2)NC(=O)[C@H](CC(N)=O)NC(=O)[C@H](Cc2cccnc2)N(C)C(=O)[C@@H](Cc2cccc(C(N)=O)c2)NC(=O)CSC[C@@H](C(=O)N[C@H](CCCCNC(=O)CN2CCN3CCN4CCN(CC2)CC(=O)[O][Lu]([O]C(=O)C3)[O]C(=O)C4)C(N)=O)NC(=O)[C@H](CCCC(N)=O)NC1=O [PDC_EphA2-00022595-C302] ({CH2CO}-[dPhe(3-CONH2)][NMe3Pal]N[Gly(cBu)][Aad](NH2)[NMeN][Trp(1-Me)]E(NH(1-deoxy-D-glucityl))[Trp(1-Me)]T[Aad](NH2)C[dK](DOTA(Lu))-NH2; thioether N-12) | > 9.00 |  |
| C[C@@H](O)[C@@H]1NC(=O)[C@H](Cc2cn(C)c3ccccc23)NC(=O)[C@H](CCCCNC(=O)N2CCN(CC(=O)O)CC2)NC(=O)[C@H](Cc2cn(C)c3c(Cl)cccc23)NC(=O)[C@H](CCC(=O)O)N(C)C(=O)[C@H](CCCC(N)=O)NC(=O)[C@H](C2CCC2)NC(=O)[C@H](CC(N)=O)NC(=O)[C@H](Cc2cccc(C#N)c2)N(C)C(=O)[C@@H](Cc2cccc(C(N)=O)c2)NC(=O)CSC[C@@H](C(=O)N[C@H](CCCCNC(=O)CN2CCN3CCN4CCN(CC2)CC(=O)[O][Lu]([O]C(=O)C3)[O]C(=O)C4)C(N)=O)NC(=O)[C@H](CCCC(N)=O)NC1=O [PDC_EphA2-00022612-C302] ({CH2CO}-[dPhe(3-CONH2)][NMePhe(3-CN)]N[Gly(cBu)][Aad](NH2)[NMeE][Trp(1-Me,7-Cl)]K([CO-Piperazinyl(4-CH2COOH)])[Trp(1-Me)]T[Aad](NH2)C[dK](DOTA(Lu))-NH2; thioether N-12) | > 9.00 |  |
| C[C@@H](O)[C@@H]1NC(=O)[C@H](Cc2cn(C)c3ccccc23)NC(=O)[C@H](CCCCNC(=O)N2CCN(CC(=O)O)CC2)NC(=O)[C@H](Cc2cn(C)c3c(Cl)cccc23)NC(=O)[C@H](CCC(=O)O)N(C)C(=O)[C@H](CCCC(N)=O)NC(=O)[C@H](C2CCC2)NC(=O)[C@H](CC(N)=O)NC(=O)[C@H](Cc2cccc(O)c2)N(C)C(=O)[C@@H](Cc2cccc(C(N)=O)c2)NC(=O)CSC[C@@H](C(=O)N[C@H](CCCCNC(=O)CN2CCN3CCN4CCN(CC2)CC(=O)[O][Lu]([O]C(=O)C3)[O]C(=O)C4)C(N)=O)NC(=O)[C@H](CCCC(N)=O)NC1=O [PDC_EphA2-00022613-C302] ({CH2CO}-[dPhe(3-CONH2)][NMemTyr]N[Gly(cBu)][Aad](NH2)[NMeE][Trp(1-Me,7-Cl)]K([CO-Piperazinyl(4-CH2COOH)])[Trp(1-Me)]T[Aad](NH2)C[dK](DOTA(Lu))-NH2; thioether N-12) | > 9.00 |  |
| C[C@@H](O)[C@@H]1NC(=O)[C@H](Cc2cn(C)c3ccccc23)NC(=O)[C@H](CCC(=O)NC[C@H](O)[C@@H](O)[C@H](O)[C@H](O)CO)NC(=O)[C@H](Cc2cn(C)c3c(Cl)cccc23)NC(=O)[C@H](Cc2cccnc2)N(C)C(=O)[C@H](CCCC(N)=O)NC(=O)[C@H](C2CCC2)NC(=O)[C@H](CC(N)=O)NC(=O)[C@H](Cc2cccc(C#N)c2)N(C)C(=O)[C@@H](Cc2cccc(C(N)=O)c2)NC(=O)CSC[C@@H](C(=O)N[C@H](CCCCNC(=O)CN2CCN(CC(=O)O)CCN(CC(=O)O)CCN(CC(=O)O)CC2)C(N)=O)NC(=O)[C@H](CCCC(N)=O)NC1=O.[Lu+3] [PDC_EphA2-00022614-C302] ({CH2CO}-[dPhe(3-CONH2)][NMePhe(3-CN)]N[Gly(cBu)][Aad](NH2)[NMe3Pal][Trp(1-Me,7-Cl)]E(NH(1-deoxy-D-glucityl))[Trp(1-Me)]T[Aad](NH2)C[dK](DOTA)-NH2; thioether N-12) |  | pKd [2]: > 9.00 |
| C[C@@H](O)[C@@H]1NC(=O)[C@H](Cc2cn(C)c3ccccc23)NC(=O)[C@H](CCC(=O)NC[C@H](O)[C@@H](O)[C@H](O)[C@H](O)CO)NC(=O)[C@H](Cc2cn(C)c3c(Cl)cccc23)NC(=O)[C@H](CC(N)=O)N(C)C(=O)[C@H](CCCC(N)=O)NC(=O)[C@H](C2CCC2)NC(=O)[C@H](CC(N)=O)NC(=O)[C@H](Cc2cccc(C#N)c2)N(C)C(=O)[C@@H](Cc2cccc(C(N)=O)c2)NC(=O)CSC[C@@H](C(=O)N[C@H](CCCCNC(=O)CN2CCN3CCN4CCN(CC2)CC(=O)[O][Lu]([O]C(=O)C3)[O]C(=O)C4)C(N)=O)NC(=O)[C@H](CCCC(N)=O)NC1=O [PDC_EphA2-00022615-C302] ({CH2CO}-[dPhe(3-CONH2)][NMePhe(3-CN)]N[Gly(cBu)][Aad](NH2)[NMeN][Trp(1-Me,7-Cl)]E(NH(1-deoxy-D-glucityl))[Trp(1-Me)]T[Aad](NH2)C[dK](DOTA(Lu))-NH2; thioether N-12) | > 9.00 |  |
| CC(C)C[C@@H]1NC(=O)[C@H](CC(N)=O)NC(=O)[C@H](Cc2cccnc2)N(C)C(=O)[C@@H](Cc2cccc(C(N)=O)c2)NC(=O)CSC[C@@H](C(=O)N[C@H](CCCCNC(=O)CN2CCN(CC(=O)O)CCN(CC(=O)O)CCN(CC(=O)O)CC2)C(N)=O)NC(=O)[C@H](CC(N)=O)NC(=O)[C@H]([C@@H](C)O)NC(=O)[C@H](Cc2cn(C)c3ccccc23)NC(=O)[C@H](CCC(=O)NC[C@H](O)[C@@H](O)[C@H](O)[C@H](O)CO)NC(=O)[C@H](Cc2cn(C)c3c(Cl)cccc23)NC(=O)[C@H](Cc2cccnc2)N(C)C(=O)[C@H](CC(N)=O)NC1=O.[Lu+3] [PDC_EphA2-00026424-C302] ({CH2CO}-[dPhe(3-CONH2)][NMe3Pal]NLN[NMe3Pal][Trp(1-Me,7-Cl)]E(NH(1-deoxy-D-glucityl))[Trp(1-Me)]TNC[dK](DOTA)-NH2; thioether N-12) |  | pKd [2]: > 9.00 |
